# Measurements published in patent EP2773641B1, “BIARYL ETHER SULFONAMIDES AND THEIR USE AS THERAPEUTIC AGENTS” (Xenon Pharmaceuticals Inc., priority 2011, dated 2013).
# Read-outs that look alike come from different tables or passages of the source.
# What was measured:
# Nav1.5 = biological target: T1, Nav1.5 (Homo sapiens, UniProt Q14524); experiment: Patch voltage clamp electrophysiology assay, block of the inactivated state of Nav1.5; assay type: cell-based; settings: IC50 class; affinity for the inactivated state; HEK-293 cells stably expressing human Nav1.5; held at -60 mV
# T1 construct: permanently transfected with an expression vector containing the full-length cDNA coding for the desired human sodium channel α-subunit; expressed in transfected cells
# Procedure: Patch voltage clamp electrophysiology allows for the direct measurement and quantification of block of voltage-gated sodium channels (Nav's), and allows the determination of the time- and voltage-dependence of block which has been interpreted as differential binding to the resting, open, and inactivated states of the sodium channel (Hille, B., Journal of General Physiology (1977), 69: 497-515).
# (§1) The following patch voltage clamp electrophysiology studies were performed on representative compounds of the invention using human embryonic kidney cells (HEK), permanently transfected with an expression vector containing the full-length cDNA coding for the desired human sodium channel α-subunit, grown in culture media containing 10% FBS, 1% PSG, and 0.5 mg/mL G418 at 37 °C with 5% CO2. […] Nav1.7 and Nav1.5 cDNAs (NM_002977 and AC137587; SCN5A, respectively) were stably expressed in HEK-293 cells. The β1 subunit was coexpressed only in the Nav1.7 cell line.
# (§2) Sodium currents were measured using the patch clamp technique in the whole-cell configuration using either a PatchXpress automated voltage clamp or manually using an Axopatch 200B (Axon Instruments) or Model 2400 (A-M systems) amplifier. The manual voltage clamp protocol was as follows: Borosilicate glass micropipettes were fire-polished to a tip diameter yielding a resistance of 2-4 Mohms in the working solutions. The pipette was filled with a solution comprised of: 5 mM NaCl, 10 mM CsCl, 120 mM CsF, 0.1 mM CaCl2, 2 mM MgCl2, 10 mM HEPES, 10 mM EGTA; and adjusted to pH 7.2 with CsOH. The external solution had the following composition: 140 mM NaCl, 5 mM KCI, 2 mM CaCl2, 1 mM MgCl2, 10 mM HEPES; and adjusted to pH 7.4 with NaOH. In some studies, the external sodium was reduced by equimolar replacement with choline. Osmolarity in the CsF internal and NaCl external solutions was adjusted to 300 mOsm/kg and 310 mOsm/kg with glucose, respectively. All recordings were performed at ambient temperature in a bath chamber with a volume of 150 µL. Control sodium currents were measured in 0.5% DMSO. Controls and representative compounds of the invention were applied to the recording chamber through a 4-pinch or 8-pinch valve bath perfusion system manufactured by ALA Scientific Instruments.
# Currents were recorded at 40 kHz sampling frequency, filtered at […], and stored using a Digidata-1322A analogue/digital interface with the pClamp software (Axon Instruments). Series resistance compensation was applied (60-80%). […] All statistics in this study are given as mean ± SD.
# The membrane potential was maintained at a voltage where inactivation of the channel is complete (which was -60 mV for both Nav1.7 and Nav1.5). The voltage is then stepped back to a very negative (Vhold = -150mV) voltage for 20 ms and then a test pulse is applied to quantify the compound block. The 20 ms brief repolarization was long enough for compound-free channels to completely recover from fast inactivation, but the compound-bound channels recovered more slowly such that negligible recovery could occur during this interval. The percent decrease in sodium current following wash-on of compound was taken as the percent block of sodium channels.
# The Example numbers provided in Table 1 and Table 2 correspond to the Examples herein. TABLE 1: Inhibition of Nav1.7
# Nav1.7 = biological target: T2, Nav1.7 (Homo sapiens, UniProt Q15858); experiment: Patch voltage clamp electrophysiology assay, block of the inactivated state of Nav1.7; assay type: cell-based; settings: affinity for the inactivated state, HEK-293 cells stably expressing human Nav1.7 with β1 subunit, held at -60 mV
# T2 construct: permanently transfected with an expression vector containing the full-length cDNA coding for the desired human sodium channel α-subunit; expressed in transfected cells
# Procedure: as §1
# as §2, with “The manual voltage clamp protocol was as follows: Borosilicate glass micropipettes were fire-polished to a tip diameter yielding a resistance of 2-4 Mohms in the working solutions.” left out
# Series resistance compensation was applied (60-80%). […] All statistics in this study are given as mean ± SD.
# The membrane potential was maintained at a voltage where inactivation of the channel is complete (which was -60 mV for both Nav1.7 and Nav1.5). The voltage is then stepped back to a very negative (Vhold = -150mV) voltage for 20 ms and then a test pulse is applied to quantify the compound block. […] The percent decrease in sodium current following wash-on of compound was taken as the percent block of sodium channels.
# The Example numbers provided in Table 1 and Table 2 correspond to the Examples herein.
# T1 sequence (Q14524 whole entry): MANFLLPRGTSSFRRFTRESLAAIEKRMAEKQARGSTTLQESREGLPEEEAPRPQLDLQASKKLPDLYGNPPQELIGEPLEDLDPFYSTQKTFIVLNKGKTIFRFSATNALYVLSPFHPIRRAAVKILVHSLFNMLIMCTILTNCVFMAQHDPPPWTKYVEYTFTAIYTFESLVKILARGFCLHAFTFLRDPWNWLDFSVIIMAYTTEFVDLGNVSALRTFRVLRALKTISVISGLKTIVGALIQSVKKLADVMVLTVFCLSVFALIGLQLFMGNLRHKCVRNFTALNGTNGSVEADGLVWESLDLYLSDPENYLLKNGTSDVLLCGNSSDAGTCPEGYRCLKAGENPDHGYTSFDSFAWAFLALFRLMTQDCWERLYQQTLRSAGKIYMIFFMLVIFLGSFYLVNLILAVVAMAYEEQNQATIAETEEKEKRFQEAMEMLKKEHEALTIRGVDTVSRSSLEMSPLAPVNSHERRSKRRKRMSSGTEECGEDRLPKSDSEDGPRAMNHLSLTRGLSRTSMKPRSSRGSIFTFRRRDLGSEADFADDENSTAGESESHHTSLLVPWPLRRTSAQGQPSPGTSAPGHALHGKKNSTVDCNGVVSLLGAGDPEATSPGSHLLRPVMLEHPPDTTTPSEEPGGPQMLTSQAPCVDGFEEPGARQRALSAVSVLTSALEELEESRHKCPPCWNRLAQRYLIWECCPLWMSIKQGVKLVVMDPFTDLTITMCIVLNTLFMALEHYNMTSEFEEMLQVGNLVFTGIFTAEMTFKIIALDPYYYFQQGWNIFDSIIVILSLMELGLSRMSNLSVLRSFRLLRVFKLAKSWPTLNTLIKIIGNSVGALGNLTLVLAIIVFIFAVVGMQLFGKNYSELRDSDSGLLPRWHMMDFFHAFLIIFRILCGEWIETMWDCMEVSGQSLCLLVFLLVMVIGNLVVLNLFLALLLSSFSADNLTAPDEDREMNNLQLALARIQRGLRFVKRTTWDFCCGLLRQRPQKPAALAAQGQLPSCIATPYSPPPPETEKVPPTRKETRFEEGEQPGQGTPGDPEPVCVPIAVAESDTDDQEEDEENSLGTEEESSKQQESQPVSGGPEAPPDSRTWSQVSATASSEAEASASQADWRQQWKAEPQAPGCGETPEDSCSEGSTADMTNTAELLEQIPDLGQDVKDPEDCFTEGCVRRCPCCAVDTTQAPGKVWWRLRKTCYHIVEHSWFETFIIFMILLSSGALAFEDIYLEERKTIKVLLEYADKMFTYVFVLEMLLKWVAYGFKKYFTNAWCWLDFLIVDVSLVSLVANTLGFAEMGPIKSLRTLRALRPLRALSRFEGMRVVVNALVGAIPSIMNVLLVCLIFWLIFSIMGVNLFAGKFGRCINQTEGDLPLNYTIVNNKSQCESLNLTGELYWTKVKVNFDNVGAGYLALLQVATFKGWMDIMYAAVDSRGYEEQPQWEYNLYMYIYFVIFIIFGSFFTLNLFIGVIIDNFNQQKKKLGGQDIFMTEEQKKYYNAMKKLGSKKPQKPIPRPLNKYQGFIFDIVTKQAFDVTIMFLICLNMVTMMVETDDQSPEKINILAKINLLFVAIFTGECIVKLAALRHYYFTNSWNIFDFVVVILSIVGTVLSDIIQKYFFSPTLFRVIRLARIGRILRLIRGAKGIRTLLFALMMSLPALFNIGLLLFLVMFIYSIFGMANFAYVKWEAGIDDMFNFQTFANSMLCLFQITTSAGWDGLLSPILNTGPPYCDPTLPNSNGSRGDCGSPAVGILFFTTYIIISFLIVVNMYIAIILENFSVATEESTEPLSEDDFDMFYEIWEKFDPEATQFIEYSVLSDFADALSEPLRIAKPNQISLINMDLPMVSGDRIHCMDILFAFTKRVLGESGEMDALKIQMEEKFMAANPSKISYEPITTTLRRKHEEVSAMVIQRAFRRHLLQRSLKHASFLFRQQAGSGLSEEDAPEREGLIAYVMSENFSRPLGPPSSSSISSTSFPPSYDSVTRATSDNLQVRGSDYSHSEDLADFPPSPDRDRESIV
# T2 sequence (Q15858 1-1977 isoform Q15858-3): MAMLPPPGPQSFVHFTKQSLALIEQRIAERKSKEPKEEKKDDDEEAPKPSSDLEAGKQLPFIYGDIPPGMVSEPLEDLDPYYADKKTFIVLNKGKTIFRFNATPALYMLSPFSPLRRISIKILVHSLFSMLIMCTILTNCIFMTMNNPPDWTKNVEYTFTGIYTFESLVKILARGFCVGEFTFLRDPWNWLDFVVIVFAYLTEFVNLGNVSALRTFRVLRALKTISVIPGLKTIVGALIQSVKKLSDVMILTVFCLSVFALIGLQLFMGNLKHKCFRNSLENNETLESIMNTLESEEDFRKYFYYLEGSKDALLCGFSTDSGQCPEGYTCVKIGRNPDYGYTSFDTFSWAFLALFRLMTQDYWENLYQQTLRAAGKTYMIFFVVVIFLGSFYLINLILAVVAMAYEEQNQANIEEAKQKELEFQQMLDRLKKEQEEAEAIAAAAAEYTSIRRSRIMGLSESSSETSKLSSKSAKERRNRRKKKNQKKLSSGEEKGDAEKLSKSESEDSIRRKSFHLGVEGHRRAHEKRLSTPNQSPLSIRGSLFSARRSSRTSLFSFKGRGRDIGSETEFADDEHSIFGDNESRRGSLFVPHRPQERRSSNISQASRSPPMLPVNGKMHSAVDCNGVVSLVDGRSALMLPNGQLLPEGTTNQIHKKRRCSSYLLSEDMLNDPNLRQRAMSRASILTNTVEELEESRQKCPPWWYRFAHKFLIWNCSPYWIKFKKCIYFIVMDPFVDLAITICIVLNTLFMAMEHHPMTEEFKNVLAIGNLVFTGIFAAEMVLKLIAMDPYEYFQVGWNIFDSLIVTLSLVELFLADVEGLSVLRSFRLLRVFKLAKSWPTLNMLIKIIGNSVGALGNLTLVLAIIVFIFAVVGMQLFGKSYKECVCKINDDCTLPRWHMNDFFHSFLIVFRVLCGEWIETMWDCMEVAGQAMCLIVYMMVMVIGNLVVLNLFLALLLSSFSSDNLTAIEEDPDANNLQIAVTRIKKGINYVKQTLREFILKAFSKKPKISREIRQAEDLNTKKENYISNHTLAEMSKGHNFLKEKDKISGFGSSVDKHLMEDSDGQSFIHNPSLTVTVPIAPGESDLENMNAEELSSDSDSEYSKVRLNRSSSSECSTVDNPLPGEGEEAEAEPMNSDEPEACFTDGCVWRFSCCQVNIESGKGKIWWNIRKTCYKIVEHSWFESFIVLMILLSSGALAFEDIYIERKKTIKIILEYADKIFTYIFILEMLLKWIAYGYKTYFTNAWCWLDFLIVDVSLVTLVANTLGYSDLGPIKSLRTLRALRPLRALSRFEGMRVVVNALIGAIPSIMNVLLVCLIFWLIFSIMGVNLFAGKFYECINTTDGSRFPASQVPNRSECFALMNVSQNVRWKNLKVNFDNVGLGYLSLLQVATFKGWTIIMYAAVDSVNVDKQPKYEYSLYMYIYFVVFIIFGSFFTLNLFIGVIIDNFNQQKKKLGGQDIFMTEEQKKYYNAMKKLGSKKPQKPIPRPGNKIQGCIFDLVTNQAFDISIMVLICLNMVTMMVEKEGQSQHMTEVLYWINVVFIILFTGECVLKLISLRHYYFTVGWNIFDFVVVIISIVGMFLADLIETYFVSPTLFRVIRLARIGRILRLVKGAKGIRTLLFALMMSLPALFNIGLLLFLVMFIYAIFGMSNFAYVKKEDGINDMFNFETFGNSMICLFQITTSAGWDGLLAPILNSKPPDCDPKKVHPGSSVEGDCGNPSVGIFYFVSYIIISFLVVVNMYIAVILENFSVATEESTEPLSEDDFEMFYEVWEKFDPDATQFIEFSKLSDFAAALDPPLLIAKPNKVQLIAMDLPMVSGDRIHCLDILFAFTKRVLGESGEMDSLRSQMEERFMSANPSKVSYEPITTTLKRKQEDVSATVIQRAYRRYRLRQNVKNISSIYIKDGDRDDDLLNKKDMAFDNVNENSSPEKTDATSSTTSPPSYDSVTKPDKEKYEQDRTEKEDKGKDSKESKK
# T2 sequence (Q07699 19-218 partner): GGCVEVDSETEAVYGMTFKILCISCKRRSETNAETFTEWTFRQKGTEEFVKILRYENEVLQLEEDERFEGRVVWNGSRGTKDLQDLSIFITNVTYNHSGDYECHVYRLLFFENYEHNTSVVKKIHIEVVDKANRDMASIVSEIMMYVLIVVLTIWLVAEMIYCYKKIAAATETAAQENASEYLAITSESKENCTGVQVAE
structure (smiles),measurement,setting,value
"O=S(=O)(Nc1ncns1)c1cc(F)c(Oc2ccc(Cl)cc2-c2cccc3nccn23)cc1F [Example 30, 4-(4-chloro-2-(imidazo[1,2-a]pyridin-5-yl)phenoxy)-2,5-difluoro-N-(1,2,4-thiadiazol-5-yl)benzenesulfonamide]",IC50,Nav1.5,> 10 µM
same,IC50,Nav1.7; read-out: Nav1.7 IC50,13.4 nM
"O=S(=O)(Nc1ncns1)c1cc(F)c(Oc2ccc(Cl)cc2-c2ccnc3nccn23)cc1F [Example 31, 4-(4-chloro-2-(imidazo[1,2-a]pyrimidin-5-yl)phenoxy)-2,5-difluoro-N-(1,2,4-thiadiazol-5-yl)benzenesulfonamide]",IC50,Nav1.5,> 10 µM
same,IC50,Nav1.7; read-out: Nav1.7 IC50,8 nM
"Nc1nc2cc(-c3cc(Cl)ccc3Oc3cc(F)c(S(=O)(=O)Nc4ncns4)cc3F)ccc2[nH]1 [Example 38, 4-(2-(2-amino-1H-benzo[d]imidazol-5-yl)-4-chlorophenoxy)-2,5-difluoro-N-(1,2,4-thiadiazol-5-yl)benzenesulfonamide]",IC50,Nav1.5,> 10 µM
same,IC50,Nav1.7; read-out: Nav1.7 IC50,0.3 nM
"CN(c1ncns1)S(=O)(=O)c1cc(F)c(Oc2ccc(Cl)cc2-c2ccc3[nH]c(N)nc3c2)cc1F [Example 41, 4-(2-(2-amino-1H-benzo[d]imidazol-5-yl)-4-chlorophenoxy)-2,5-difluoro-N-methyl-N-(1,2,4-thiadiazol-5-yl)benzenesulfonamide]",IC50,Nav1.5,1 to 10 µM
same,IC50,"Nav1.7; IC50 class, read-out: Nav1.7",100 to 1000 nM
same,IC50,Nav1.7; read-out: Nav1.7 IC50,67.8 nM
"Nc1noc2ccc(-c3cc(Cl)ccc3Oc3cc(F)c(S(=O)(=O)Nc4ncns4)cc3F)cc12 [Example 44, 4-(2-(3-aminobenzo[d]isoxazol-5-yl)-4-chlorophenoxy)-2,5-difluoro-N-(1,2,4-thiadiazol-5-yl)benzenesulfonamide]",IC50,Nav1.5,1 to 10 µM
same,IC50,Nav1.7; read-out: Nav1.7 IC50,0.6 nM
"Cc1ccc(Oc2cc(F)c(S(=O)(=O)Nc3ncns3)cc2F)c(-c2ccc3oc(=O)[nH]c3c2)c1 [Example 82, 2,5-difluoro-4-(4-methyl-2-(2-oxo-2,3-dihydrobenzo[d]oxazol-5-yl)phenoxy)-N-(1,2,4-thiadiazol-5-yl)benzenesulfonamide]",IC50,Nav1.7; read-out: Nav1.7 IC50,0.7 nM
"Nc1noc2ccc(-c3cccnc3Oc3cc(F)c(S(=O)(=O)Nc4ncns4)cc3F)cc12 [Example 86, 4-((3-(3-aminobenzo[d]isoxazol-5-yl)pyridin-2-yl)oxy)-2,5-difluoro-N-(1,2,4-thiadiazol-5-yl)benzenesulfonamide]",IC50,"Nav1.7; IC50 class, read-out: Nav1.7",100 to 1000 nM
same,IC50,Nav1.7; read-out: Nav1.7 IC50,51 nM
"CN(C)c1noc2ccc(-c3cc(Cl)ccc3Oc3cc(F)c(S(=O)(=O)Nc4ncns4)cc3F)cc12 [Example 98, 4-(4-chloro-2-(3-(dimethylamino)benzo[d]isoxazol-5-yl)phenoxy)-2,5-difluoro-N-(1,2,4-thiadiazol-5-yl)benzenesulfonamide]",IC50,Nav1.7; read-out: Nav1.7 IC50,0.2 nM
